Data from article PMC8875242, “Evaluation of the Potency of Anti-HIV and Anti-HCV Drugs to Inhibit P-Glycoprotein Mediated Efflux of Digoxin in Caco-2 Cell Line and Human Precision-Cut Intestinal Slices” (Pharmaceuticals, 2022).
Counter-ions that a name gives are not always drawn. Like-named read-outs stand apart in the source and are kept apart here.

Key:
[1] = biological target: T1, ABCB1 (Homo sapiens, UniProt P08183); parameters: confirming the functional expression of ABCB1 in the Caco-2 cells; host or cells: Caco-2; method as in PMID 31481446; conditions: Caco-2, cited from earlier work
[2] = biological target: T1, ABCB1; experiment: Ex vivo [^3H]-digoxin accumulation in hPCIS prepared from the jejunum
Protocol: Ex vivo accumulation assays were performed as previously described. Directly after surgery, the resected part of the human jejunum was placed in cold (4 °C) Krebs–Henseleit buffer oxygenated with carbogen gas. The muscle layer was removed, and the remaining mucosa was cut into fragments measuring approximately 5 by 20 mm, which were then embedded in a 3% agarose solution (3% (wt/vol) in 0.9% NaCl, 37 °C). PCIS of approximately 300 µm thickness were cut using a Krumdieck tissue slicer (Alabama R&D, Munford, AL, USA). […] Both incubation steps were conducted in a humidified atmosphere of […] and 5% CO2 at 37 °C [32, 34, 35]. The accumulation of [^3H]-digoxin was stopped after 2 h of incubation by washing the slices twice in the Krebs–Henseleit cold buffer (4 °C). […] The samples were then centrifuged (10 min; 7800 g). Concentrations of [^3H]-digoxin in the supernatant samples (300 µL) were assessed after mixing them with 1.5 mL of Ultima Gold™ via scintillation counting (Tri-Carb 2900TR liquid scintillation analyzer, Packard Bioscience). The pellets obtained during centrifugation were dried overnight at 37 °C and then solubilized in 200 µL of 5 M NaOH for 24 h. Milli-Q water was then added to the samples to achieve a NaOH concentration of 1 M. The protein content was measured using a bicinchoninic acid protein kit (Thermo Fisher Scientific, Waltham, MA, USA). The measured [^3H]-digoxin concentrations were normalized against the protein content.

[3] = biological target: T1, ABCB1; parameters: confirming the functional expression of ABCB1 in the Caco-2 cells; host or cells: Caco-2; method as in PMID 31481446; conditions: hPCIS, cited from earlier work
[4] = biological target: T1, ABCB1; experiment: Bidirectional transport of [^3H]-digoxin across Caco-2 monolayers
Protocol: Caco-2 cells were seeded at a density of 3 × 10^5 cells per insert and cultured for 21 days in a standard cultivation medium containing 1% penicillin–streptomycin. The medium was changed every other day, during which the transepithelial electrical resistance (TEER) across the cell monolayers was measured using a Millicell-ERS instrument (Millipore Corporation, Bedford, MA, USA). […] For the bidirectional permeability assay, a Hanks’ balanced salt solution buffer was used. The pH in the A compartment was adjusted to 6.5 using a methanesulfonic acid solution, while that in the B compartment was adjusted to 7.4 using a HEPES solution [34, 80]. The volumes used were 0.5 mL and 1.5 mL in compartments A and B, respectively. To improve the reproducibility of the results, the receiver compartment always contained 1% bovine serum albumin, as previously recommended. […] Samples (200 µL) were collected after 1 and 2 h from the receiver compartment; after the first collection, fresh receiver solution was added to the receiver compartment to maintain the original volume. The concentration of [^3H]-digoxin was quantified using a Tri-Carb 2900TR liquid scintillation analyzer (Packard Bioscience, Meriden, CT, USA). Its concentration in the samples collected during Caco-2 experiments was measured after adding 1 mL of Ultima Gold^TM Cocktail. A to B and B to A transport were evaluated in terms of an apparent permeability coefficient (Papp), calculated using the equation in [80, 81]. […] The efflux ratio (rPapp) was then calculated using the equation [80, 82]:rPapp = (Papp B to A)/(Papp A to B)(2)

[5] = cited from earlier work
[6] = Solubility; format: physicochemical; conditions: incubation medium, 0.1% DMSO
Protocol: The stock solutions were stored at −20 °C before use. The final concentration of DMSO was 0.1% in all experiments. The final concentrations of EtOH in hPCIS and Caco-2 cells were 0.03% and 0.012%, respectively.

[7] = test system: ABCB1; conditions: suggested; cited from earlier work
[8] = test system: ABCB1; parameters: method as in PMID 23132334; conditions: apparent activity at 100 µM; cited from earlier work

T1 sequence (P08183 whole entry): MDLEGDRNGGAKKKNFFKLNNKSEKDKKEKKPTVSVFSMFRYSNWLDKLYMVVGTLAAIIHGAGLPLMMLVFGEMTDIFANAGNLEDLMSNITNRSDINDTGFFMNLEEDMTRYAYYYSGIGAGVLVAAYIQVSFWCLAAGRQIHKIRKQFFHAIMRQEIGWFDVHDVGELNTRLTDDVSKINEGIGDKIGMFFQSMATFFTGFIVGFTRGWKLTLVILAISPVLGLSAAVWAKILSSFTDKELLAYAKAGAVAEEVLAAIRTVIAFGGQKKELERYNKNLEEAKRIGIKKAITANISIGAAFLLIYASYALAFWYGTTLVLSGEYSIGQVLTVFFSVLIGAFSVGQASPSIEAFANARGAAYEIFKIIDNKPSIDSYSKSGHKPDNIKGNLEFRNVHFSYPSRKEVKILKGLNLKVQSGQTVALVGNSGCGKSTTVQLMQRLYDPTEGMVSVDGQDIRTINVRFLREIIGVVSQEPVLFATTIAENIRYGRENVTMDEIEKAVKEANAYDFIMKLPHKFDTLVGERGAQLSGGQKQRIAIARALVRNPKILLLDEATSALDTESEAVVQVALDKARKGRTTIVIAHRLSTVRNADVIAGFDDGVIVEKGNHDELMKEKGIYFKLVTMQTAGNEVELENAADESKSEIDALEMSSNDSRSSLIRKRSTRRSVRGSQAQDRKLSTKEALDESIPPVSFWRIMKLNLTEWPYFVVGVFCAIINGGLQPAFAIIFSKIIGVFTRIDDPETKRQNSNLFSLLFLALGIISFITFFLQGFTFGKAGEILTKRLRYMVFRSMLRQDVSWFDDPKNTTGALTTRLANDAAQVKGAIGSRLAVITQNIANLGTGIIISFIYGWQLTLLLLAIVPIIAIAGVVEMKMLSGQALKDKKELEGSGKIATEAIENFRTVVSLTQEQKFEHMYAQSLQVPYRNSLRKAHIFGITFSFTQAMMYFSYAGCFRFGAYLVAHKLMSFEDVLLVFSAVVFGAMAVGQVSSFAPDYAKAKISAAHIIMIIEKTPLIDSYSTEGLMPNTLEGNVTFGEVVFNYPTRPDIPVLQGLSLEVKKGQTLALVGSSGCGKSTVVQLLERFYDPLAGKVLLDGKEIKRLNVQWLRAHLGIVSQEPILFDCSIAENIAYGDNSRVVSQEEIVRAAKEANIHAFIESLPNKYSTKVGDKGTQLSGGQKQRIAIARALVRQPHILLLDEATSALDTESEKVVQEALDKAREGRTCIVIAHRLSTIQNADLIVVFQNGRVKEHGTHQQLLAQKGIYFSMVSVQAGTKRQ

CC(C)(C)NC(=O)[C@@H]1C[C@@H]2CCCC[C@@H]2CN1C[C@@H](O)[C@H](Cc1ccccc1)NC(=O)[C@H](CC(N)=O)NC(=O)c1ccc2ccccc2n1 [Saquinavir, saquinavir]
RHD123 Inhibition (bidirectional transport) ([1]; compound 20 µM): YES | Digoxin Inhibition in human PCIS (in words) ([2]; compound 5 µM, hPCIS): did not induce any detectable inhibition | Digoxin Inhibition in human PCIS (in words) ([2]; compound 20 µM, hPCIS): YES | RHD123 Inhibition in human PCIS ([3]; compound 20 µM): YES | Digoxin Inhibition (bidirectional transport, in words) ([4]; compound 20 µM): YES

Cc1cc(/C=C/C#N)cc(C)c1Nc1ccnc(Nc2ccc(C#N)cc2)n1 [Rilpivirine, rilpivirine]
Effect on the pharmacokinetics of digoxin or tenofovir DF in vivo ([5]; dose of 25 mg/day): does not significantly affect | Digoxin Inhibition in human PCIS (in words) ([2]; compound 20 µM, hPCIS): did not inhibit | Digoxin Inhibition (bidirectional transport, in words) ([4]; compound 20 µM): YES

COC[C@H]1C[C@@H](c2ncc(-c3ccc4c(c3)COc3cc5c(ccc6nc([C@@H]7CC[C@H](C)N7C(=O)[C@@H](NC(=O)OC)C(C)C)[nH]c65)cc3-4)[nH]2)N(C(=O)[C@H](NC(=O)OC)c2ccccc2)C1 [Velpatasvir, velpatasvir]
Solubility (in words) [6]: limited solubility | IC50 [7]: ~20.6 µM | Increase of digoxin exposure ([5]; healthy volunteers): 34% | Digoxin Inhibition (bidirectional transport, in words) ([4]; compound 5 µM): No significant effect

COC(=O)N[C@H](C(=O)N[C@@H](Cc1ccccc1)[C@@H](O)CN(Cc1ccc(-c2ccccn2)cc1)NC(=O)[C@@H](NC(=O)OC)C(C)(C)C)C(C)(C)C [Atazanavir, atazanavir]
RHD123 Inhibition (bidirectional transport) ([1]; compound 50 µM): YES | Digoxin Inhibition in human PCIS (in words) ([2]; compound 20 µM, hPCIS): did not inhibit | Digoxin Inhibition in human PCIS (in words) ([2]; compound 50 µM, hPCIS): YES | RHD123 Inhibition in human PCIS ([3]; compound 50 µM): YES | Digoxin Inhibition (bidirectional transport, in words) ([4]; compound 50 µM): YES

CC(C)OC(=O)OCOP(=O)(CO[C@H](C)Cn1cnc2c(N)ncnc21)OCOC(=O)OC(C)C [Tenofovir DF, tenofovir disoproxil fumarate]
Digoxin Inhibition in human PCIS (in words) ([2]; compound 100 µM, hPCIS): did not induce any detectable inhibition

Nc1nc(NC2CC2)c2ncn([C@H]3C=C[C@@H](CO)C3)c2n1 [Abacavir, abacavir]
Digoxin Inhibition in human PCIS (in words) ([2]; compound 100 µM, hPCIS): did not induce any detectable inhibition | Digoxin Inhibition (bidirectional transport, in words) ([4]; compound 100 µM): No significant effect

COC(=O)N[C@H](C(=O)N1CC2(CC2)C[C@H]1c1ncc(-c2ccc3c(c2)C(F)(F)c2cc(-c4ccc5nc([C@@H]6[C@H]7CC[C@H](C7)N6C(=O)[C@@H](NC(=O)OC)C(C)C)[nH]c5c4)ccc2-3)[nH]1)C(C)C [Ledipasvir, ledipasvir]
Solubility (in words) [6]: low solubility | RHD123 Inhibition (bidirectional transport) ([1]; compound 50 µM): YES | Digoxin Inhibition in human PCIS (in words) ([2]; compound 20 µM, hPCIS): no inhibition | Digoxin Inhibition in human PCIS (in words) ([2]; compound 50 µM, hPCIS): no inhibition | Digoxin Inhibition (bidirectional transport, in words) ([4]; compound 50 µM): YES

Cc1cn([C@H]2C[C@H](N=[N+]=[N-])[C@@H](CO)O2)c(=O)[nH]c1=O [Zidovudine, zidovudine]
Digoxin Inhibition in human PCIS (in words) ([2]; compound 100 µM, hPCIS): did not induce any detectable inhibition | Digoxin Inhibition (bidirectional transport, in words) ([4]; compound 100 µM): No significant effect

Cc1cccc(C)c1OCC(=O)N[C@@H](Cc1ccccc1)[C@@H](O)C[C@H](Cc1ccccc1)NC(=O)[C@H](C(C)C)N1CCCNC1=O [Lopinavir, lopinavir]
Digoxin Inhibition in human PCIS (in words) ([2]; compound 20 µM, hPCIS): did not induce any detectable inhibition | Digoxin Inhibition in human PCIS (in words) ([2]; compound 50 µM, hPCIS): YES | RHD123 Inhibition in human PCIS ([3]; compound 50 µM): YES

C[C@@H]1CCO[C@H]2Cn3cc(C(=O)NCc4ccc(F)cc4F)c(=O)c(O)c3C(=O)N12 [Dolutegravir, dolutegravir]
Solubility (in words) [6]: limited solubility | Digoxin Inhibition in human PCIS (in words) ([2]; compound 10 µM, hPCIS): did not induce any detectable inhibition | Inhibition of digoxin transport in MDCK-ABCB1 cells [8]: weak inhibitor | Digoxin Inhibition (bidirectional transport, in words) ([4]; compound 10 µM): No significant effect

CC(C)CN(C[C@@H](O)[C@H](Cc1ccccc1)NC(=O)O[C@H]1CO[C@H]2OCC[C@H]21)S(=O)(=O)c1ccc(N)cc1 [Darunavir, darunavir]
Digoxin Inhibition in human PCIS (in words) ([2]; compound 50 µM, hPCIS): did not inhibit

Cc1cc(C#N)cc(C)c1Oc1nc(Nc2ccc(C#N)cc2)nc(N)c1Br [Etravirine, etravirine]
Solubility (in words) [6]: low solubility | Digoxin Inhibition in human PCIS (in words) ([2]; compound 20 µM, hPCIS): did not inhibit | Digoxin Inhibition (bidirectional transport, in words) ([4]; compound 20 µM): YES

C=C[C@@H]1C[C@]1(NC(=O)[C@@H]1C[C@@H]2CN1C(=O)[C@H](C(C)(C)C)NC(=O)O[C@@H]1C[C@H]1CCCCCc1nc3ccc(OC)cc3nc1O2)C(=O)NS(=O)(=O)C1CC1.O [Grazoprevir, grazoprevir]
Digoxin Inhibition in human PCIS (in words) [2]: increased [^3H]-digoxin uptake

COC(=O)N[C@H](C(=O)N1CCC[C@H]1c1nc(-c2ccc(-c3ccc(-c4c[nH]c([C@@H]5CCCN5C(=O)[C@@H](NC(=O)OC)C(C)C)n4)cc3)cc2)c[nH]1)C(C)C [Daclatasvir, daclatasvir]
RHD123 Inhibition (bidirectional transport) ([1]; compound 20 µM): YES | Digoxin Inhibition in human PCIS (in words) ([2]; compound 20 µM, hPCIS): YES

maraviroc
RHD123 Inhibition (bidirectional transport) ([1]; compound 100 µM): YES | Digoxin Inhibition in human PCIS (in words) ([2]; compound 100 µM, hPCIS): did not induce any detectable inhibition | Digoxin Inhibition (bidirectional transport, in words) ([4]; compound 100 µM): No significant effect

COC(=O)N[C@H](C(=O)N1CCC[C@H]1c1nc(-c2ccc3c(c2)O[C@@H](c2ccccc2)n2c-3cc3cc(-c4c[nH]c([C@@H]5CCCN5C(=O)[C@@H](NC(=O)OC)C(C)C)n4)ccc32)c[nH]1)C(C)C [Elbasvir, elbasvir]
Solubility (in words) [6]: low solubility | Increase in plasma AUC (intestinal ABCB1 inhibition) ([5]; humans): 11% | Digoxin Inhibition in human PCIS (in words) ([2]; compound 5 µM, hPCIS): no inhibition

CC(C)OC(=O)[C@H](C)N[P@](=O)(OC[C@H]1O[C@@H](n2ccc(=O)[nH]c2=O)[C@](C)(F)[C@@H]1O)Oc1ccccc1 [Sofosbuvir, sofosbuvir]
Digoxin Inhibition in human PCIS (in words) [2]: no effect

C[C@H]1O[C@@H](O[C@H]2[C@@H](O)C[C@H](O[C@H]3[C@@H](O)C[C@H](O[C@H]4CC[C@@]5(C)[C@H](CC[C@@H]6[C@@H]5C[C@@H](O)[C@]5(C)[C@@H](C7=CC(=O)OC7)CC[C@]65O)C4)O[C@@H]3C)O[C@@H]2C)C[C@H](O)[C@@H]1O [Digoxin, digoxin]
efflux ratio at 2 h, 6 nM ([4]; human): 9.53 ± 2.22
